Test results as given in patent US11974551B2, “L-serine compositions, methods and uses for treating neurodegenerative diseases and disorders” (priority 2011, dated 2024).
Entries after “also recorded” stand apart in the source; their conditions may differ.

Tests used:
[1] = system: MRC-5 cells; assay: Incorporation of 3H-BMAA radiolabel into cell proteins (TCA precipitation, liquid scintillation counting); type: cell-based, human; conditions: 16 hours
Experimental: MRC-5 cells were incubated with ^3H-BMAA (31.25 nM) in HBSS containing 10% FCS. After 2, 4, and 16 hours, cells were washed three times in phosphate buffered saline and lysed by freeze-thawing in Triton X-100. The protein concentration in the lysate was determined using the bicinchoninic acid assay (BCA) (Smith, et al., Anal Biochem 150, 76-85 (1985)) (and radiolabel in the cell lysate quantified by liquid scintillation counting (LSC). Cell proteins were then isolated by trichloroacetic acid (TCA) (5%) precipitation washed three times in TCA (5%) and dissolved in formic acid.
To determine if incorporation of radiolabel into proteins was protein synthesis dependent MRC-5, SH-SY5Y and HUVEC cells were incubated with ^3H-BMAA (31.25 nM) with or without CHX 2 μg/ml for 16 hours. The amount of radiolabel present in cell proteins in the CHM-treated cultures was expressed relative to that of control cultures, which was set at 100%. Parallel cultures of MRC-5 cells were incubated with ^3H-leucine (41 nM) with or without CHX 2 μg/ml under identical culture conditions and processed as before.
To examine the ability of individual amino acids to reduce incorporation or radiolabel into proteins, MRC-5 cells were incubated with ^3H-BMAA (31.25 nM) for 16 hours in the presence of individual amino acids (250 μM) and the radiolabel present in the cell proteins assessed as before. All of the 20 protein amino acids (L-isomers) were examined individually in triplicate cell cultures. […] Incorporation of radiolabel was determined relative to cells incubated in medium containing no serine. MRC-5 cells were then incubated with ^3H-BMAA (31.25 nM) for 16 hours in HBSS alone, HBSS containing all 20 protein amino acids (400 μM) or 19 protein amino acids except L-serine and the amount of radiolabel in cell protein assessed as before.

[2] = mice, single injection (Karlsson et al. 2009); cited from earlier work
[3] = system: SH-SY5Y cells; assay: Annexin V binding (apoptosis) by flow cytometry; type: cell-based, human
Experimental: Late-stage apoptosis or necrosis was measured by simultaneous staining with propidium iodide and Annexin V using the BD Pharmingen™ Annexin V—FITC apoptosis detection kit and flow cytometry performed as described previously (Dunlop, et al., Biochem J 435, 207-216 (2010)).

[4] = system: MRC-5 cells; assay: Protein-bound non-labeled BMAA in hydrolysed cell proteins by triple quadrupole LC/MS/MS; type: cell-based, human; conditions: BMAA 250-1000 μM with L-serine 250-1000 μM, or CHX
Experimental: After incubation with ^3H-BMAA or cold BMAA, cells were washed three times with PBS, lysed by freeze thawing in Triton-X-100 (0.1%) and cell proteins precipitated in TCA (5%). Protein pellets were washed three times with TCA (5%) and hydrolysed in boiling 6 M HCl at 110° C. for 16 hours as previously described (Mondo, et al., Mar Drugs 10, 509-520 (2012)). Protein pellets were freeze-dried and reconstituted in 20 mM HCl. Particulates were removed by centrifugation through […] membranes and the hydrolysate derivatized in AccQ·Tag (Waters Corporation, Australia). Amino acids were separated on a Waters C-18 column using a method and gradient as described previously (Mondo, et al., Mar Drugs 10, 509-520 (2012)). For recovery of radiolabel in hydrolysed samples, fractions were collected manually every minute for 40 minutes, diluted into 5 ml scintillant (Ultima Gold™ scintillant, Perkin Elmer) and disintegrations per minute (DPM) determined by LSC.
To further confirm that BMAA was present in cell proteins and incorporation was inhibited by L-serine, MRC-5 cells were incubated with a range of concentrations of BMAA (250-1000 μM) or BMAA with L-serine (250-1000 μM) and hydrolysed cell proteins were analyzed by tandem mass spectroscopy on a triple quadrupole LC/MS/MS. […]

[5] = system: HUVEC; assay: Incorporation of 3H-BMAA radiolabel into cell proteins with or without CHX; type: cell-based, human; conditions: 3H-BMAA 31.25 nM, CHX 2 μg/ml, 16 hours
Experimental: (§1) MRC-5 cells, a human lung fibroblast cell line (passage number 14-19), and SH-SY5Y cells, a human neuroblastoma cell-line (passage number 30-32), were maintained in DMEM, or DMEM/Hams F12 respectively containing 10% fetal bovine serum (FBS), 4 mM L-glutamine, 100 U/mL penicillin, and 100 μg/mL streptomycin at 37° C. in a humidified atmosphere of 5% CO2 and 95% air. Human umbilical vein endothelial cells (HUVEC) were harvested enzymatically with type II collagenase (Sigma-Aldrich) under sterile conditions as described by Minter (Minter, et al., Thromb Haemost 67, 718-723 (1992)) and established as primary cell cultures in M199 (Trace Biosciences, Sydney, Australia) containing 20% FBS, 4 mM L-glutamine, 0.5% endothelial cell growth promoter, 100 U/mL penicillin, and 100 μg/mL streptomycin. All media were prepared with endotoxin-free water (Baxter) and filtered with Zetapor filters (Cuno Life Sciences Division). Cells were seeded at 3×10^5 cells per well in 6 well plates and allowed to adhere overnight (16 hours) before treatment.
(§2) To determine if incorporation of radiolabel into proteins was protein synthesis dependent MRC-5, SH-SY5Y and HUVEC cells were incubated with ^3H-BMAA (31.25 nM) with or without CHX 2 μg/ml for 16 hours. The amount of radiolabel present in cell proteins in the CHM-treated cultures was expressed relative to that of control cultures, which was set at 100%. […]

[6] = system: SH-SY5Y cells; assay: as above; type: cell-based, human; conditions: 3H-BMAA 31.25 nM, CHX 2 μg/ml, 16 hours
Experimental: as §1, §2

[7] = system: MRC-5 cells; assay: Lactate dehydrogenase (LDH) release assay; type: cell-based, human; conditions: BMAA-treated cells
Experimental: (§3) Lactate dehydrogenase release from cells was determined as described previously (Tang, et al., Phytother Res 25, 417-423 (2010)).

[8] = system: SH-SY5Y cells; assay: Lactate dehydrogenase (LDH) release assay; type: cell-based, human; conditions: BMAA-treated cells
Experimental: as §3

[9] = system: Drosophila fruit flies; assay: Fruit fly feeding: mortality after three days; type: in vivo, Drosophila melanogaster; conditions: media with 25 mM BMAA, after three days
Experimental: Preliminary studies show the ability of L-Serine to prevent misincorporation of BMAA into proteins. In a series of feeding experiments, Drosophila fruit flies were fed four different types of media: 1) standard fruit fly media with 0 mM BMAA (control), 2) media enriched with 25 mM L-Serine, 3) media with 25 mM BMAA added, and 4) media with both 25 mM BMAA and 25 mM L-Serine added for three days of feeding. Misincorporation of BMAA into proteins was then analyzed using triple quadrupole LC/MS/MS and Orbital Trap LC/MS/MS.
Equally interesting is the analysis of the protective value of L-Serine on Drosophila dosed with BMAA. Fruit flies fed with BMAA enriched media (third set of blocks) suffered a 40% mortality after three days, while flies fed with Serine plus BMAA (fourth set of blocks) had no mortality (FIG. 8). These flies were rescued by L-Serine.

[10] = system: MRC-5 cells; assay: Acridine orange/ethidium bromide dual-staining of cells; type: cell-based, human; conditions: 500 μM BMAA, 23 hours
Experimental: MRC-5 cells were incubated in the presence and absence of 500 μM BMAA for 23 hours. After removing the medium, the cells were rinsed once with warm PBS and incubated in a solution of AO/EB then visualized using fluorescent microscopy as described previously (Tang, et al., Phytother Res 25, 417-423 (2010)).

[11] = Radio-labeled BMAA brain entry and insertion into neuroproteins; type: in vivo; conditions: tritiated and 14C-labeled BMAA, rats
Text: Studies testing to determine if L-Serine blocks the misincorporation of radio-tagged BMAA into rodent brains are undertaken.

[12] = system: zebrafish; assay: Zebrafish motor neuron development (fluorescent microscopy); type: in vivo, zebrafish (Dario rerio); conditions: eggs injected with L-BMAA, 30 hours; motor neuron length vs control P<0.0001
Experimental: (§4) BMAA was directly injected through the chorion into the yolk, allowing it to directly compete with L-serine for incorporation into newly synthesized proteins in the developing fish. BMAA (100 mg/ml in water) or water were delivered by an automated Picospritzer pump set to deliver 5 nL per injection into the yolk ([…]) of zebrafish immediately after being fertilized. Fish were left to develop for 30 hours in standard conditions.
(§5) Surviving fish were reared in an aquarium equipped with biological filtration and temp control set at 28° C. for 3 months. BMAA-treated and control fish from the same parents were reared in the same tanks, then separated based on fluorescent tag prior to swimming assessment. After 3 months all healthy adult fish with no deformations or abnormalities were examined. Critical swimming speed was determined, defined as the maximum swimming velocity that can be sustained for a set period in a water tunnel. Water was pumped from a reservoir (EcoTech Marine MP10 VorTech® Propeller Pump with EcoSmart Driver) through 50 mm diameter tubing. […] The difference in total motor neuron length was quantitated by measuring the first ten motor neuron projections marked before the end of the yolk extension (Paquet D. et al., J. Clin. Invest. 119:1382 (2009)). […] Data was collated in GraphPad Prism (version 6 for OSX) and statistical significance calculated using a Student's T-test. […]

[13] = system: zebrafish; assay: Zebrafish swimming performance (critical swimming speed, time to fail); type: in vivo, zebrafish (Dario rerio); conditions: single yolk injection of BMAA, fish reared 3 months, compared to control fish, p<0.001
Experimental: as §4, §5

[14] = system: MRC-5 cells; assay: Autofluorescence imaging of cells; type: cell-based, human; conditions: BMAA 300 μM, 96 hours
Experimental: MRC-5 cells were incubated in DMEM supplemented with 300 μM BMAA in the presence or absence of 300 μM L-serine for 96 hours with daily medium changes. Cellular autofluorescence was visualized using an inverted fluorescent microscope (Olympus IX71) as described previously (Dunlop, et al., Biochem J 410, 131-140 (2008)).

[15] = system: zebrafish; assay: Zebrafish egg yolk injection: survival; type: in vivo, zebrafish (Dario rerio); conditions: BMAA 100 mg/ml in water, 5 nL injected into yolk after fertilization, 30 hours; control 91%
Experimental: as §4

With `N[C@H](CO)C(=O)O` [D-Serine, D-serine] the “effect on incorporation of 3H-BMAA into protein” value ([1]; 3H-BMAA 31.25 nM, 250 μM D-serine) was “did not prevent incorporation”.
For `CNC[C@H](N)C(=O)O` [^3H-BMAA], the tissue distribution pattern [2] is listed as “a distribution pattern similar to that of a protein-forming amino acid”.
For `C[C@@H]1C[C@@H]([C@H](O)CC2CC(=O)NC(=O)C2)C(=O)[C@@H](C)C1` [CHX, cycloheximide], the “effect on BMAA-induced Annexin V binding / apoptosis” value ([3]; 500 μM BMAA, co-incubation with CHX 2 μg/mL or L-serine 50 μM) was “abrogated; also recorded: significantly reduced”, the “effect on amount of 3H-BMAA radiolabel in the protein fraction” value ([1]; 3H-BMAA 31.25 nM, CHX 2 μg/ml, relative to no CHX) was “significantly reduced; also recorded: inhibition of incorporation of radiolabel into cell protein” and the “inhibition of incorporation of 3H-leucine into proteins, compared with 3H-BMAA” value ([1]; 3H-leucine 41 nM, CHX 2 μg/ml) was “to the same extent”. The “effect on incorporation of non-labeled BMAA into cell proteins” value [4] was “inhibited”, the “effect on protein association of 3H-BMAA” value [5] was “inhibited” and the “effect on protein association of 3H-BMAA” value [6] was “inhibited”.
With `CNC[C@H](N)C(=O)O` [BMAA, β-methylamino-L-alanine] the “Annexin V staining (apoptosis)” value ([3]; 500 μM BMAA alone) was “increased staining; also recorded: significant increase”, the “necrosis, LDH release” value [7] was “no significant changes” and the “necrosis, LDH release” value [8] was “no significant changes”. For the same compound, the mortality [9] was 40%, the “morphological changes and pale cells indicative of apoptosis” value [10] was “increased number; also recorded: morphological changes” and the “crossing of the blood-brain barrier” value [11] was “rapidly cross the blood-brain barrier”. For the same compound, the insertion into neuroproteins [11] was “inserted into neuroproteins”, the motor neuron development [12] was “truncated neurons” and the “swimming performance, time to fail” value [13] was “significant impairment; also recorded: impairs zebrafish swimming performance”. The “formation of autofluorescent bodies” value [14] was “autofluorescent bodies were evident; also recorded: Autofluorescence was observed” and the “zebrafish viability (survival)” value [15] was 74%.
